# According to patent US20150297623A1, “METHODS FOR TREATMENT OF PRIMARY CANCER AND CANCER METASTASIS” (THE BOARD OF REGENTS OF THE UNIVERSITY OF TEXAS SYSTEM, priority 2012, published 2015):
# Columns and labels:
# MDA-MB-231 cells [1] = test: WST-1 cell proliferation assay; assay type: cell-based, human; conditions: for effect on cell proliferation: concentrations as used in migration assay / various concentrations
# Experimental: Cell viability was assessed using WST-1 (Water Soluble Tetrazolium salts) assay (Roche). A single cell suspension was plated in 96-well plates at 2.0×10^4 cells/well and allowed to attach to the plates at 37° C. for 2 hr. […] After the treatment, cell viability was measured by adding 10 μl of Cell Proliferation Reagent WST-1 to each well and incubated for 1 hr at 37° C. in a 5% CO2 incubator. The cell proliferation was measured at an […] wavelength of 450 nm with a Synergy HT Multi-Mode Microplate Reader (Biotek).
# MDA-MB-231 cells [2] = test: Transwell cell migration assay, MDA-MB-231; assay type: cell-based, human; conditions: for effect on migration of MDA-MB-231 cells: 200 μM
# Experimental: (§1) MLO-Y4 cells were seeded onto 150 mm dishes (Corning) and incubated for 24 hr to allow attachment, after which media was removed and changed with α-modified essential medium (α-MEM) without phenol red (Gibco) supplemented with 2.5% FBS and 2.5% BCS (Hyclone). MLO-Y4 cells were incubated in the absence or present of 20 μM AD in a 5% CO2 incubator at 37° C. for 48 hr and the CM was collected.
# (§2) Migration assays were performed in transwell membrane filter inserts in 24-well tissue culture plates (BD Biosciences San Jose, Calif., USA). The transwell membrane filter inserts contained 6.5-mm diameter, 8-μm pore size, […] thick polycarbonate membranes. The breast cancer cell lines were harvested and resuspended in CM from MLO-Y4 cells with or without other compounds. Five-hundred microliter breast cancer cell suspensions were added to the upper side of the inserts at a density of 10×10^4 cells/insert and 750 μl CM with or without other compounds was added to the lower wells. Cells were incubated at 37° C. for 18-20 hr. […] The number of migrated cells in 5 fields of view per insert was counted under a light microscope at magnification 10×.
# [3] = tested on: Py8119 mouse mammary carcinoma cells; test: Transwell cell migration assay, Py8119; assay type: cell-based
# Experimental: as §1, §2
# MDA-MB-231 cells [4] = test: Orthotopic MDA-MB-231 xenograft in mammary fat pads of nude mice; assay type: in vivo, mouse; conditions: for tumor growth rate in comparison to the control group: 400 μmol per mouse IP three times a week
# Experimental: To test if ATP has a similar, inhibitory effect on tumor growth in vivo, the inventors used an orthotopic mouse model. MDA-MB-231 cells were orthotopically implanted into the mammary fat pads of athymic female nude mice. After the mice were randomly assigned into 3 different treatment groups, the mice were treated with or without ATPγS or adenosine. The ATPγS and adenosine were administered through IP injections at 400 μmol per mouse three times a week. The control mice were injected IP with saline. Dosages were determined by a previous study showing no toxicity from IP injections of up to 50 mM of adenine nucleotides into mice for 10 days. Tumor sizes were measured once every three to four days throughout the treatment period. At the end of the study, the tumors were excised and weighed. […] The reduced mean tumor volume of the treatment group was statistically significant after 17 days of ATPγS treatment. […] Additionally, the adenosine-treated group had 50% increased tumor sizes compared to the control group tumors (FIG. 7B).
# MDA-MB-231 cells were injected subcutaneously in the mammary fat pad of 4-week-old female nu/nu athymic nude mice. Each mouse received bilateral subcutaneous inoculation in both the left and right inguinal mammary fat pad areas with 100 μl of cell suspension containing ˜1×10^7 cells/ml in serum-free media. Animals were randomly assigned to 3 different groups, and solid tumors were allowed to form up to about 5 mm^3 volume before treatments began. ATPγS, at 400 μmol/500 μl saline, adenosine, at 400 μmol/500 μl saline, or 500 μl of saline, were administered intraperitoneally (IP) three times a week for 3 weeks. The growth of xenograft tumors was monitored twice a week and tumor size was measured with a caliper in two dimensions. Tumor volumes were calculated with the equation V=(L×W^2)×0.5 (mm^3), where L is length and W is width of a tumor.
# [5] = tested on: Py8119 mammary carcinoma cells; test: Intratibial injection of Py8119/Luc-GFP cells, bioluminescence imaging; assay type: in vivo, mouse
# Experimental: To assess how systemic treatment with ATPγS may affect the growth of breast cancer cells in the bone microenvironment of a syngeneic host, the inventors performed intratibial injections in wild-type C57b1/6 female mice using the mouse mammary carcinoma cell line Py8119. The mammary tumor cells were injected into the right tibias of the female mice, and the tumor growth was monitored with whole animal imaging once a week for 4 weeks. The mice were treated with IP injection of saline supplemented with or without 400 μmol ATPγS three times a week. […] Quantification data (lower panels) further confirmed the significant decrease of tumor growth in bone with the treatment of ATPγS. Mice were anesthetized by isoflurane and were also given buprenorpine-HCl (0.3 mg/ml) as an analgesic. Py8119 cells expressing Luc-GFP (1×10^5 in 20 μl of PBS) were inoculated into the bone marrow area of right tibias through the pre-made hole by a Hamilton syringe fitted with a 30-gauge needle. […] Intratibial tumor growth was monitored with bioluminescence imaging with a Xenogen IVIS-Spectrum imaging system (Xenogen, Alameda, Calif., USA) every week starting from 3 days after tumor cell inoculation. […] Analysis was performed using LivingImage software (Xenogen) by measurement of photon flux (measured in photons/sec/cm^2/steradian) with a region of interest (ROI) drawn around the bioluminescence signal to be measured. […]
# MDA-MB-231 cells [6] = test: Soft agar colony formation assay (anchorage-independent growth); assay type: cell-based, human; conditions: about 2 weeks (control 82±4.5)
# Experimental: For anchorage-independent cell growth, MDA-MB-231 cells were plated in 0.4% agarose with complete medium supplemented with either 100 μM ATPγS or 200 μM adenosine on top of a 0.8% agarose base supplemented with complete medium. Cells were maintained for about 2 weeks before staining with p-iodonitrotetrazolium violet (Sigma-Aldrich, St. Louis, Mo.). Images were captured by using a scanner and the numbers of colonies were counted.
compound,measurement,setting,value
2′(3′)-O-(4-Benzoylbenzoyl)adenosine-5′-triphosphate tri(triethylammonium) salt [BzATP],effect on cell proliferation (WST-1),MDA-MB-231 cells [1]; 400 μM,significant reduction
same,effect on cell proliferation (WST-1),MDA-MB-231 cells [1]; concentrations 1-200 μM,minimal effects
same,number of migrating MDA-MB-231 cells,MDA-MB-231 cells [2]; compound 10 μM,99±7.8 cells
same,number of migrating MDA-MB-231 cells,MDA-MB-231 cells [2]; compound 100 μM,64±4.4 cells
same,number of migrating MDA-MB-231 cells,MDA-MB-231 cells [2]; compound 200 μM,39±2.6 cells
"CCOc1nc2c(N)ncnc2n1CC [ANR94, 8-Ethoxy-9-ethyl-9H-purin-6-amine]",effect on ATP-increased migration of MDA-MB-231 cells,"MDA-MB-231 cells [2]; 100 μM ANR94, 200 μM ATP, 20 hr",attenuated
same,effect on adenosine-increased migration of MDA-MB-231 cells,"MDA-MB-231 cells [2]; 100 μM ANR94, 200 μM adenosine, 20 hr",attenuated
CCN(CC)c1ncnc2c1ncn2[C@@H]1O[C@H](COP(=O)(O)OP(=O)(O)C(Br)(Br)P(=O)(O)O)[C@@H](O)[C@H]1O [ARL67156],effect on cell proliferation,MDA-MB-231 cells [1],not caused by changes in cell proliferation
same,effect on the stimulatory effect of higher dosage of ATP on migration,"MDA-MB-231 cells [2]; 200 μM ARL67156, 200 μM ATP",attenuated
"Nc1ncnc2c1ncn2[C@@H]1O[C@H](COP(=O)(O)OP(=O)(O)OP(=O)(O)O)[C@@H](O)[C@H]1O [ATP, adenosine-5′-triphosphate]",number of migrated Py8119 cells,[3]; 400 μM ATP in CM (control 254±25.9),159±7.8 cells
same,number of migrated Py8119 cells,[3]; 400 μM ATP in CM-AD (control 127±0.3),88±10.3 cells
same,effect on cell proliferation,MDA-MB-231 cells [1],not caused by alterations of cell proliferation
same,number of migrated MDA-MB-231 cells,MDA-MB-231 cells [2]; 200 μM ATP added to CM from non-AD-treated MLO-Y4 cells (control 127±2),188±33.5
same,number of migrated MDA-MB-231 cells,MDA-MB-231 cells [2]; 200 μM ATP added to CM-AD (control 88±10.7),153±21.1
same,effect on migration of MDA-MB-231 cells,MDA-MB-231 cells [2]; 20 hr,increased migration
same,number of migrating MDA-MB-231 cells,MDA-MB-231 cells [2]; compound 50 μM,100±17.7 cells
same,number of migrating MDA-MB-231 cells,MDA-MB-231 cells [2]; compound 200 μM,257±26 cells
same,number of migrating MDA-MB-231 cells,MDA-MB-231 cells [2]; compound 400 μM,240±0.9 cells
"Nc1ncnc2c1ncn2[C@@H]1O[C@H](COP(=O)([O-])OP(=O)([O-])OP([O-])([O-])=S)[C@@H](O)[C@H]1O.[Li+].[Li+].[Li+].[Li+] [ATPγS, adenosine 5′-[γ-thio]triphosphate tetralithium salt]",effect on migration of Py8119 cells,[3]; 100 μM ATPγS in CM / CM-AD,decreased
same,number of migrated MDA-MB-231 cells,MDA-MB-231 cells [2]; 100 μM ATPγS in control CM (control 112±2.4),63±9.6 cells
same,number of migrating MDA-MB-231 cells,MDA-MB-231 cells [2]; compound 50 μM,46±9.3 cells
same,number of migrating MDA-MB-231 cells,MDA-MB-231 cells [2]; compound 100 μM,33±3.3 cells
same,number of migrating MDA-MB-231 cells,MDA-MB-231 cells [2]; compound 200 μM,11±1.7 cells
same,number of migrating MDA-MB-231 cells,MDA-MB-231 cells [2]; compound 400 μM,9±1.5 cells
same,decrease of size of excised tumors vs control group,"MDA-MB-231 cells [4]; 400 μmol ATPγS IP three times a week, post mortem",over 4 fold
same,tumor growth rate in comparison to the control group,MDA-MB-231 cells [4],significantly reduced
same,tumor growth in the tibias (bioluminescence),[5]; 400 μmol ATPγS IP three times a week,significantly inhibited
same,"tumor burden (bioluminescence signals, dorsal and ventral)","[5]; 400 μmol ATPγS IP, after 4 weeks of treatment",dramatic reduction
same,colony formation of MDA-MB-231 cells in soft agar,MDA-MB-231 cells [6]; 100 μM ATPγS,47±6.2 colonies
"CCCn1c(=O)c2[nH]c(-c3ccc(OCC(=O)Nc4ccc(C#N)cc4)cc3)nc2n(CCC)c1=O [MRS1754, N-(4-Cyanophenyl)-2-[4-(2,3,6,7-tetrahydro-2,6-dioxo-1,3-dipropyl-1H-purin-8-yl)phenoxy]-acetamide]",effect on adenosine-enhanced migration of Py8119 cells,[3],inhibited
same,effect on the inhibitory effect of CM-AD on cell migration,MDA-MB-231 cells [2]; 500 nM MRS1754,further augmented the inhibitory effect
same,effect on the stimulatory effect of ATP on migration,"MDA-MB-231 cells [2]; 500 nM MRS1754, 200 μM ATP, in CM / CM-AD",attenuated
same,effect on adenosine-induced increase of MDA-MB-231 cell migration,"MDA-MB-231 cells [2]; 500 nM MRS1754, 200 μM adenosine, in CM",completely attenuated
same,effect on the increase of migration caused by apyrase treatment,"MDA-MB-231 cells [2]; 500 nM MRS1754, apyrase 5 units/ml, in CM",significantly attenuated
Nc1ncnc2c1ncn2[C@@H]1O[C@H](CO)[C@@H](O)[C@H]1O [adenosine],effect on cell proliferation,MDA-MB-231 cells [1],minimal effects
same,effect on MDA-MB-231 cell migration,MDA-MB-231 cells [2]; 200 μM adenosine in CM from MLO-Y4 cells,increased
same,effect on migration of MDA-MB-231 cells,MDA-MB-231 cells [2]; 20 hr,increases
same,increase of tumor sizes compared to control group,"MDA-MB-231 cells [4]; 400 μmol adenosine IP three times a week, post mortem",50%
same,tumor growth rate in comparison to the control group,MDA-MB-231 cells [4],increase
same,colony formation of MDA-MB-231 cells in soft agar,MDA-MB-231 cells [6]; 200 μM adenosine,132±13.7 colonies
Nc1ncnc2c1ncn2[C@@H](C=O)O[C@@H](C=O)COP(=O)(O)OP(=O)(O)OP(=O)(O)O [oATP],effect on the inhibitory effect of CM-AD on MDA-MB-231 cell migration,MDA-MB-231 cells [2]; 300 μM oATP,significantly attenuated
apyrase,increase of MDA-MB-231 cell migration,MDA-MB-231 cells [2]; apyrase 5 units/ml in CM-AD,7.7 fold
same,increase of MDA-MB-231 cell migration,MDA-MB-231 cells [2]; apyrase 5 units/ml in untreated CM,2.5 fold
